Experiments:
[1] = test system: Mycosphaerella Arachidis(Cercospora Arachidicola); assay: Mycosphaerella arachidis (Cercospora arachidicola) / liquid culture (early leaf spot); assay type: cell-based; conditions: PDB potato dextrose broth, 24° C., 4-5 days after application, read-out: disease control (inhibition of growth, photometrically)
Method: (§1) 11 Mycosphaerella Arachidis(Cercospora Arachidicola)/Liquid Culture (Early Leaf Spot) Conidia of the fungus from cryogenic storage were directly mixed into nutrient broth (PDB potato dextrose broth). After placing a DMSO solution of test compound into a 96-well microtiter plate, the nutrient broth containing the fungal spores was added. The test plates were incubated at 24° C. and the inhibition of growth was determined photometrically 4-5 days after application.

Pythium Ultimum = assay: Pythium ultimum / liquid culture (seedling damping off); assay type: cell-based; conditions: Globisporangium ultimum, potato dextrose broth, 24° C., 2-3 days after application, read-out: disease control (inhibition of growth, photometrically)
Gaeumannomyces Graminis = assay: Gaeumannomyces graminis / liquid culture (take-all of cereals); assay type: cell-based; conditions: PDB potato dextrose broth, 24° C., 4-5 days after application, read-out: disease control (inhibition of growth, photometrically)
Method: 13 Gaeumannomyces Graminis/Liquid Culture (Take-all of Cereals) Mycelial fragments of the fungus from cryogenic storage were directly mixed into nutrient broth (PDB potato dextrose broth). After placing a DMSO solution of test compound into a 96-well microtiter plate, the nutrient broth containing the fungal spores is added. The test plates were incubated at 24° C. and the inhibition of growth was determined photometrically 4-5 days after application.

Fusarium Culmorum = assay: microbe, parasite or virus in culture; assay type: cell-based; conditions: read-out: disease control (inhibition of growth, photometrically)
Plasmopara Viticola = assay: whole plant or invertebrate; assay type: in vivo; conditions: foliar, read-out: disease control
[2] = test system: Glomerella Lagenarium(Colletotrichum Ladenarium); assay: Glomerella lagenarium (Colletotrichum lagenarium) / liquid culture (anthracnose); assay type: cell-based; conditions: PDB potato dextrose broth, 24° C., 3-4 days after application, read-out: disease control (inhibition of growth, photometrically)
Method: as §1, with “10 Glomerella Lagenarium(Colletotrichum Ladenarium)/Liquid” for “11 Mycosphaerella Arachidis(Cercospora Arachidicola)/Liquid”, “(Anthracnose)” for “(Early Leaf Spot)”, “measured” for “determined”, “3-4” for “4-5”

[3] = test system: Monographella Nivalis(Microdochium Nivale); assay: Monographella nivalis (Microdochium nivale) / liquid culture (foot rot cereals); assay type: cell-based; conditions: PDB potato dextrose broth, 24° C., 4-5 days after application, read-out: disease control (inhibition of growth, photometrically)
Method: as §1, with “14 Monographella Nivalis(Microdochium Nivale)/Liquid” for “11 Mycosphaerella Arachidis(Cercospora Arachidicola)/Liquid”, “(Foot Rot Cereals)” for “(Early Leaf Spot)”

[4] = test system: Mycosphaerella Graminicola(Septoria Tritici); assay: Mycosphaerella graminicola (Septoria tritici) / liquid culture (Septoria blotch); assay type: cell-based; conditions: Zymoseptoria tritici, PDB potato dextrose broth, 24° C., 4-5 days after application, read-out: disease control (inhibition of growth, photometrically)
Method: as §1, with “12” for “11”, “Graminicola(Septoria Tritici)/Liquid” for “Arachidis(Cercospora Arachidicola)/Liquid”, “(Septoria Blotch)” for “(Early Leaf Spot)”

[5] = test system: Thanatephorus Cucumeris(Rhizoctonia Solani); assay: Thanatephorus cucumeris (Rhizoctonia solani) / liquid culture (foot rot, damping-off); assay type: cell-based; conditions: PDB potato dextrose broth, 24° C., 3-4 days after application, read-out: disease control (inhibition of growth, photometrically)
Method: 16 Thanatephorus Cucumeris(Rhizoctonia Solani)/Liquid Culture (Foot Rot, Damping-Off) Mycelia fragments of a newly grown liquid culture of the fungus were directly mixed into nutrient broth (PDB potato dextrose broth). After placing a DMSO solution of the test compounds into a 96-well microtiter plate at an application rate of 200 ppm, the nutrient broth containing the fungal material was added. The test plates were incubated at 24° C. and the inhibition of growth was determined photometrically 3-4 days after application.

[6] = test system: Phaeosphaeria Nodorum (Septoria Nodorum); assay: Phaeosphaeria nodorum (Septoria nodorum) / wheat / leaf disc preventative (glume blotch); assay type: in vivo; conditions: Parastagonospora nodorum, foliar, wheat leaf segments cv Kanzler, inoculated 2 days after application, assessed 5-7 days after application, read-out: disease control
Method: 5 Phaeosphaeria Nodorum (Septoria Nodorum)/Wheat/Leaf Disc Preventative (Glume Blotch) Wheat leaf segments cv Kanzler were placed on agar in a 24-well plate and sprayed with formulated test compound diluted in water. The leaf disks were inoculated with a spore suspension of the fungus 2 days after application. The inoculated test leaf disks were incubated at 20° C. and 75% relative humidity under a light regime of 12/12 h (light/dark) in a climate cabinet and the activity of a compound was assessed as percent disease control compared to untreated when an appropriate level of disease damage appears in untreated check leaf disks (5-7 days after application).

Sclerotinia Sclerotiorum = assay: Sclerotinia sclerotiorum / liquid culture (cottony rot); assay type: cell-based; conditions: PDB potato dextrose broth, 24° C., 3-4 days after application, read-out: disease control (inhibition of growth, visually)
Method: 17 Sclerotinia Sclerotiorum/Liquid Culture (Cottony Rot) Mycelia fragments of a newly grown liquid culture of the fungus were directly mixed into nutrient broth (PDB potato dextrose broth). After placing a (DMSO) solution of the test compounds into a microtiter plate (96-well format) the nutrient broth containing the fungal material was added. The test plates were incubated at 24° C. and the inhibition of growth was determined visually 3-4 days after application.

[7] = test system: Botryotinia Fuckeliana(Botrytis Cinerea); assay: Botryotinia fuckeliana (Botrytis cinerea) / liquid culture (gray mould); assay type: cell-based; conditions: Vogels broth, 24° C., 3-4 days after application, read-out: disease control (inhibition of growth, photometrically)
Method: as §1, with “9 Botryotinia Fuckeliana(Botrytis Cinerea)/Liquid” for “11 Mycosphaerella Arachidis(Cercospora Arachidicola)/Liquid”, “(Gray Mould)” for “(Early Leaf Spot)”, “(Vogels” for “(PDB potato dextrose”, “3-4” for “4-5”

Structure (SMILES) | inhibition at 20 ppm [1] [%] | inhibition at 20 ppm (Pythium Ultimum) [%] | inhibition at 20 ppm (Gaeumannomyces Graminis) [%] | inhibition at 20 ppm (Fusarium Culmorum) [%] | pest or weed control at 200 ppm (Plasmopara Viticola) [%] | inhibition at 20 ppm [2] [%] | inhibition at 20 ppm [3] [%] | inhibition at 20 ppm [4] [%] | inhibition at 20 ppm [5] [%] | pest or weed control at 200 ppm [6] [%] | inhibition at 20 ppm (Sclerotinia Sclerotiorum) [%] | melting point [°C] | inhibition at 20 ppm [7] [%]
CCc1ccc(-c2cc3c(cc2Cl)COB3O)s1 [Compound 35] | ≥ 80 | ≥ 80 | ≥ 80 | ≥ 80 | ≥ 80 | ≥ 80 | ≥ 80 | ≥ 80 | ≥ 80 |  |  |  | 
COc1ncccc1-c1cc2c(cc1F)COB2O [Compound 81] | ≥ 80 | ≥ 80 | ≥ 80 |  | ≥ 80 | ≥ 80 | ≥ 80 | ≥ 80 |  | ≥ 80 | ≥ 80 |  | 
ON=Cc1ccc(-c2cc3c(cc2Cl)COB3O)o1 (single isomer, unassigned) [Compound 22, 5-(5-chloro-1-hydroxy-3H-2,1-benzoxaborol-6-yl)furan-2-carbaldehyde oxime] |  | ≥ 80 |  |  |  | ≥ 80 | ≥ 80 |  |  |  |  | 188 to 193 | 
Cn1nnc(-c2ccc3c(c2)B(O)OC3)n1 [Compound 31, 5-(1-hydroxy-3H-2,1-benzoxaborol-6-yl)-2-methyl-tetrazole] | ≥ 80 | ≥ 80 |  |  |  | ≥ 80 | ≥ 80 |  |  |  |  | 209 to 210 | 
OB1OCc2cc(F)c(-c3ccco3)cc21 [Compound 5] | ≥ 80 | ≥ 80 | ≥ 80 | ≥ 80 | ≥ 80 | ≥ 80 | ≥ 80 | ≥ 80 | ≥ 80 |  | ≥ 80 | 155 to 164 | ≥ 80
Cc1ccc(-c2cc3c(cc2Cl)COB3O)o1 [Compound 36] | ≥ 80 | ≥ 80 | ≥ 80 | ≥ 80 | ≥ 80 | ≥ 80 | ≥ 80 | ≥ 80 | ≥ 80 |  | ≥ 80 |  | ≥ 80
OB1OCc2cc(Cl)c(-c3cocc3Br)cc21 [Compound 44] | ≥ 80 | ≥ 80 | ≥ 80 | ≥ 80 | ≥ 80 | ≥ 80 | ≥ 80 | ≥ 80 | ≥ 80 |  | ≥ 80 |  | ≥ 80
OB1OCc2cc(Cl)c(-c3ccoc3)cc21 [Compound 84] | ≥ 80 | ≥ 80 | ≥ 80 | ≥ 80 | ≥ 80 | ≥ 80 | ≥ 80 | ≥ 80 | ≥ 80 |  | ≥ 80 |  | 
OB1OCc2cc(F)c(-c3ccoc3)cc21 [Compound 75] | ≥ 80 | ≥ 80 | ≥ 80 | ≥ 80 | ≥ 80 | ≥ 80 | ≥ 80 | ≥ 80 | ≥ 80 |  | ≥ 80 |  | ≥ 80
O=Cc1ccc(-c2cc3c(cc2Cl)COB3O)o1 [Compound 21, 5-(5-chloro-1-hydroxy-3H-2,1-benzoxaborol-6-yl)furan-2-carbaldehyde] |  | ≥ 80 | ≥ 80 |  | ≥ 80 | ≥ 80 | ≥ 80 | ≥ 80 |  |  | ≥ 80 | 145 to 165 | 
OB1OCc2cc(F)c(-c3cncc(Cl)n3)cc21 [Compound 57] | ≥ 80 | ≥ 80 | ≥ 80 | ≥ 80 | ≥ 80 |  | ≥ 80 | ≥ 80 |  | ≥ 80 | ≥ 80 |  | ≥ 80
OB1OCc2cc(Cl)c(-c3sccc3Br)cc21 [Compound 45] | ≥ 80 | ≥ 80 | ≥ 80 | ≥ 80 | ≥ 80 | ≥ 80 | ≥ 80 | ≥ 80 | ≥ 80 |  | ≥ 80 |  | ≥ 80
OCc1ccc(-c2cc3c(cc2Cl)COB3O)o1 [Compound 40] | ≥ 80 | ≥ 80 | ≥ 80 | ≥ 80 |  | ≥ 80 | ≥ 80 | ≥ 80 |  |  | ≥ 80 |  | ≥ 80
OB1OCc2cc(Cl)c(-c3cncc(Cl)n3)cc21 [Compound 68] | ≥ 80 | ≥ 80 | ≥ 80 |  | ≥ 80 |  | ≥ 80 | ≥ 80 |  | ≥ 80 | ≥ 80 |  | ≥ 80
OB1OCc2cc(Cl)c(-c3ccccn3)cc21 [Compound 8] | ≥ 80 | ≥ 80 |  | ≥ 80 | ≥ 80 | ≥ 80 |  | ≥ 80 |  | ≥ 80 | ≥ 80 |  | ≥ 80
Cc1nc(-c2cc3c(cc2F)COB3O)oc1C [Compound 32, 2-(5-fluoro-1-hydroxy-3H-2,1-benzoxaborol-6-yl)-4,5-dimethyl-oxazole] |  | ≥ 80 |  |  |  |  | ≥ 80 |  |  |  |  | 164 to 166 | 
OB1OCc2cc(Cl)c(-c3cc4ccccc4[nH]3)cc21 [Compound 72] | ≥ 80 | ≥ 80 | ≥ 80 | ≥ 80 | ≥ 80 | ≥ 80 | ≥ 80 | ≥ 80 | ≥ 80 |  |  |  | 

From patent US10314308B2, “Microbiocidal benzoxaboroles” (SYNGENTA PARTICIPATIONS AG, priority 2015, dated 2019)
